Assay results published in patent publication US20180201662A1, “PEPTIDE FOR PROMOTING CELL MIGRATION AND/OR SKIN WOUND HEALING, PHARMACEUTICAL COMPOSITION CONTAINING THE SAME, AND APPLICATION THEREOF” (Industrial Technology Research Institute, priority 2016, published 2018).
Where no end group is shown, it is not given here. [ ]: non-standard residue; d: D form.

Columns and labels:
Format in all cases: cell-based
[1] = test system: human umbilical vein endothelial cells (HUVEC); assay: MCP-1 secretion of human umbilical vein endothelial cells HUVECs stimulated with peptides (ELISA); details: Peptide 6 660 and 165 μg/ml, IL-6 200 and 50 ng/ml, FIG. 2A
Procedure: (§1) 3. Detections of MCP-1 Secretion of Human Umbilical Vein Endothelial Cells HUVECs and Human Monocyte-Derived Macrophages Stimulated with Peptides
(§2) Peptides were added to respective wells of a culturing plate to stimulate HUVECs for 24-48 hours, or to stimulate macrophages for 48 hours. In the experiment for macrophages, macrophages not stimulated were used as a blank group.
(§3) 3.2.1 MCP-1 respectively secreted from HUVECs and macrophages to the supernatant of the culture was detected by a […].
(§4) 3.2.2 Absorbance of the supernatant of the culture at 450-540 nm was detected by a SpectraMax M5 microplate reader. Detection limitation of this ELISA kit to MCP-1 is about […].

[2] = test system: human monocyte-derived macrophages; assay: MCP-1 secretion of human monocyte-derived macrophages stimulated with peptides (ELISA)
Procedure: (§5) Peripheral blood mononuclear cells were isolated from leukocytes in the blood of healthy donors by Ficoll Hypaque.
(§6) Monocytes were isolated from the peripheral blood mononuclear cells by using Human MACS CD14 Isolation Kit.
(§7) Monocytes (2×10^6 cells/mL) were seeded in a 6-well plate containing 2 mL fresh complete medium and cultured at 5% CO2, 37° C. for 6 days. The medium was changed every 2-3 days to make the monocytes differentiate to macrophages.
as §1, §2, §3, §4

[3] = test system: human monocyte-derived macrophages; assay: TNF-α secretion of monocyte-derived macrophages stimulated with peptides (ELISA)
Procedure: as §5, §6, §7
2. Detection of TNF-α Secretion of Monocyte-Derived Macrophages Stimulated with Peptides
Peptides were added to respective wells of a culturing plate to stimulate macrophages for 48 hours. Macrophages not stimulated were used as a blank group.
2.2.1 TNF-α secreted from macrophages to the supernatant of the culture was detected by a human TNF-α kit.
2.2.2 Absorbance of the supernatant of the culture at 450-540 nm was detected by a SpectraMax M5 microplate reader. Detection limitation of this ELISA kit to TNF-α is about […].

[4] = test system: human keratinocyte cell line HaCaT; assay: MMP9 secretion of human keratinocyte cell line HaCaT stimulated with peptides (ELISA); details: 48 hours; peptides 1.5, 1 and 0.5 mg/ml vs IL-6 1000 and 100 ng/ml; FIG. 9
Procedure: 5. Detection of MMP9 Secretion of Human Keratinocyte Cell Line HaCaT Stimulated with Peptides
Peptides were added to respective wells of a culturing plate to stimulate HaCaT cells for 48 hours. HaCaT cells not stimulated were used as a blank group.
5.2.1 MMP9 secreted from HaCaT cells to the supernatant of the culture was detected by a MMP9 kit (R&D systems, Human MMP-9 DuoSet ELISA (DY911)).
5.2.2 Absorbance of the supernatant of the culture at 450-540 nm was detected by a SpectraMax M5 microplate reader. Detection limitation of this ELISA kit to MMP9 is about […].

[5] = test system: human keratinocyte cell line HaCaT; assay: Cell migration analysis of human keratinocyte cell line HaCaT stimulated with peptides (scratch); details: compared to control group; concentrations of 300 μg/ml, 660 μg/ml and 1000 μg/ml; 18 hour; FIG. 3A, 3B
Procedure: 4. Cell Migration Analysis of Human Keratinocyte Cell Line HaCaT Stimulated with Peptides
4.1 Each well of a 12-well culturing plate was coated with 100 μg/ml of collagen (in 0.02N acetic acid) (0.5 ml/well).
4.2 The culturing plate was placed at 37° C. for 1 hour, and then was washed with Dulbecco's phosphate buffered saline (DPBS) one time.
4.3 HaCaT cells were seeded in the culturing plate with DMEM containing serum (5×10^5 cells/well), and the final serum concentration for each well was 10%.
4.4 The cells were cultured in a condition of 5% CO2, 37° C.
4.5 The medium was replaced with DMEM containing 0.6% serum for serum starvation and culture the cells overnight.
4.6 The bottom of the well of the culturing plate was scraped with 1000 μl tips, and the culturing plate was washed with Dulbecco's phosphate buffered saline twice.
4.7 The cells and peptides were cultured in DMEM containing 0.6% serum. HaCaT cells not stimulated with peptides or growth factors were used as a control group.
4.8 Photographs were taken at 0 hour and 18 hour.
4.9. The photographs were analyzed by Celllmage Comp software, and the migration distances for cells were calculated.

[6] = macrophages of Donors 1-3, 48 hours, Peptide 6 125-1000 μg/ml, IL-6 5-200 ng/ml, FIG. 2B-2D
[7] = macrophages of Donor 4, 48 hours, peptides up to 250 μg/ml, IL-6 100 ng/ml and 50 ng/ml, FIG. 7
[8] = macrophages of Donor 5, 48 hours, peptides 50 μg/ml, IL-6 200 ng/ml, FIG. 12
[9] = macrophages of Donors 1-3, 48 hours, Peptide 6 up to 1000 μg/ml, IL-6 50 ng/ml, FIG. 1A-1C
[10] = macrophages of Donor 4, 48 hours, peptides 50 ng/ml-250 μg/ml vs IL-6 100 and 50 ng/ml, FIG. 8
[11] = macrophages of Donor 5, 48 hours, peptides 50 μg/ml vs IL-6 200 ng/ml, FIG. 13

Row | Substance | MCP-1 secretion of HUVECs [1] | MCP-1 secretion of macrophages [2, 6] | TNF-α secretion of macrophages [3, 7] | TNF-α secretion of macrophages [3, 8] | TNF-α secretion of macrophages [3, 9] | MMP9 secretion of HaCaT [4] | MCP-1 secretion of macrophages [2, 10] | MCP-1 secretion of macrophages [2, 11] | cell migration of HaCaT [5]
1 | IL-6: interleukin; mature form has the sequence of SEQ ID NO. 1; comparator | a lower quantity of MCP-1 | a lower quantity of MCP-1 | a great quantity of TNF-α | a great quantity of TNF-α | can induce macrophages to secrete TNF-α |  |  |  | 
2 | Peptide 6: IL-6-derived peptide, sequence SEQ ID NO. 6, corresponds to amino acids of positions 102 to 129 of mature form IL-6 (NRFESSEEQARAVQMSTKVLIQFLQKKA) | a great quantity of MCP-1 | a great quantity of MCP-1 | a low level of TNF-α | almost do not induce TNF-α secretion | does not induce macrophages to secrete TNF-α | a higher level of MMP9 secretion than IL-6 | a higher level of MCP-1 secretion than IL-6 | a higher level of MCP-1 secretion than IL-6 | can promote cell migration
3 | ITRI-2: isoform of Peptide 6 (SEQ ID NO. 6) with one D-form amino acid: valine at position 13 (NRFESSEEQARA[dV]QMSTKVLIQFLQKKA) |  |  | a low level of TNF-α |  |  | a higher level of MMP9 secretion than IL-6 | a higher level of MCP-1 secretion than IL-6 |  | 
4 | 6M14: short form peptide of Peptide 6, sequence SEQ ID NO. 3 (EQARAVQMSTKVLI) [Peptide 6M14] |  |  |  | almost do not induce TNF-α secretion |  |  |  | a higher level of MCP-1 secretion than IL-6 | 
